Source: patent publication US20120128630A1, “1-(6 MEMBERS AZO-HETEROCYCLIC)-PYRROLIN-2-ONE COMPOUNDS AS INHIBITORS OF HEPATITIS C NS5B POLYMERASE, THE PHARAMACEUTICAL COMPOSITION THEREOF AND THEIR THERAPEUTIC USE” (priority 2009, published 2012)
pEC50: −log10 of the molar value. Read-outs that look alike come from different tables or passages of the source.

Assays:
HCV NS5B genotype 1b = target: T1, HCV NS5B genotype 1b (Hepatitis C virus genotype 1b, UniProt Q9WMX2); assay: 3D-SCREEN assay (NS5B 3D-Screen platform, luciferase reporter gene); format: cell-based
T1 construct: The protein was expressed with a 21 amino acid C-terminal deletion to remove transmembrane domain; expressed in transfected cells; host or cells: Huh-7
Outline: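 Huh-7 cells transiently co-transfected with NS5BΔ21/Gal4-DBD, 3D-Sensor peptide I4/VP16 and firefly luciferase reporter. Compounds added 2 h after seeding, 1% DMSO final, 24 h incubation. Luciferase luminescence read; % inhibition relative to no-compound signal.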

HCV replicon Luc Neo ET = assay: Luc Neo ET Replicon assay; format: cell-based, Hepatitis C virus; settings: Table 3, titled RdRp enzyme assay results, EC50_Replicon LucneoET, 72 hours with compound, luciferase
Experimental: Human Hepatoma Huh-7 cell line was maintained in DMEM/HAMF-12 supplemented with 10% SVF, 4 mM glutamine, […] Na pyruvate, 1% penistreptomycine. HCV replicon containing Huh-7 cell lines Huh-9.13 and Luc Neo ET (Reblikon) were maintained in DMEM supplemented with 10% SVF, 2 mM glutamine, and 1×NEAA, 100 U/ml penicillin, and 100 μg/ml streptomycine. Replicon cells were maintained in medium supplemented with 1 mg/ml G418 for replicon Huh-9.13 and 0.5 mg/ml for Luc Neo et replicon unless indicated otherwise. Huh-7 and HCV replicon cell lines were maintained at 37° C. and 5% CO2 in a humidified atmosphere. Cells were dissociated at sub confluence with trypsin EDTA 1×.
Replicon Luc Neo ET is a bicistronic expression constructs (Lohmann et al, 1999, Science 285, 110-113). In brief, the structural genes of the HCV genome were replaced by heterologous sequences; the gene encoding the neomycin phosphotransferase (NPT) and the internal ribosome entry site (IRES) of the encephalomyocarditis virus (EMCV). The bicistronic construct is therefore composed of the following elements: HCV-IRES nucleotides 1-389, the NPT gene, the EMCV-IRES directing translation of downstream HCV sequences from NS2 or NS3 up to the authentic 3′ end of the genome. HCV Polyprotein harbours the cell culture adaptive mutations E1202G, T1280I, K1846T. G418-resistance is only possible with cells containing high amounts of replicon.
Cells were dissociated the day before addition of compounds and seeded in 96 well-plates at a final concentration of 77 777.77 cells.ml^−1.well^−2 in 90 μl final volume of culture medium per well and were maintained at 37° C. and 5% CO2 in a humidified atmosphere for 24 hours. 10 μl of compounds to be tested were added 24 hours after seeding. Final concentration of DMSO was 1%. Cells were incubated in the presence of compounds for 72 hours after which expression of firefly luciferase reporter gene was quantified. Briefly, culture medium was removed and cells were lysed by addition of 100 μl of lysis buffer containing 125 mM Tris Phosphate ph 7.8, 10 mM EDTA, 5 mM DTT, 50% glycerol and 5% Triton. Plates were vortexed 10 min at 1300 rpm. Cell lysat was transferred in OpaqueWhite Assay 96 well Flat Bottom plates. 100 μl of luciferin solution 1× were added to each well. Luciferin solution contained 40 mM Tris Phosphate ph 7.8, 0.2 mM EDTA, 67 mM DTT, 2.14 mM MgCl2, 5.4 mM MgSO4, 4.7×10^−4 M luciferin, 5.3×10^−4 M ATP and 2.7×10^−4 M Acetyl co enzyme A. Luminescence was immediately measured with Berthold Microlumat Plus LB 96V luminometer with an integration of 0.5 sec Inhibition was calculated using the formula:
% inhibition=1−[(RLUsample−RLUbackground)/(RLUsignal−RLUbackground)]

[1] = EC50_3DS_NS5B, Table 1, 3D-SCREEN assay results, Huh-7 cells, 24 hours with compound, firefly luciferase reporter
[2] = EC50_3DS_NS5B, Table 2, titled Replicon assay results

Compound	pEC50 (HCV NS5B genotype 1b; [1])	pEC50 (HCV replicon Luc Neo ET; Hepatitis C virus, 72 h)	melting point	pEC50 (HCV NS5B genotype 1b; [2])	pEC50 (HCV NS5B genotype 1b; read-out: EC50_3DS_NS5B, Table 2, titled Replicon assay results)	pEC50 (HCV replicon Luc Neo ET)
Cc1ccc(C(=O)C2=C(O)C(=O)N(c3ccc(C)nn3)C2c2ccc(C(C)C)cc2)cc1 (stereo not shown) [Example 8, 3-hydroxy-5-(4-isopropyl-phenyl)-4-(4-methyl-benzoyl)-1-(6-methyl-pyridazin-3-yl)-1,5-dihydro-pyrrol-2-one]	5.70	5.52	279 °C			
Cc1ccc(N2C(=O)C(O)=C(C(=O)c3ccc(C(C)C)cc3)C2c2ccc(C(C)C)cc2)nn1 (stereo not shown) [Example 20, 3-hydroxy-4-(4-isopropyl-benzoyl)-5-(4-isopropyl-phenyl)-1-(6-methyl-pyridazin-3-yl)-1,5-dihydro-pyrrol-2-one]	6.40	7.00	271 °C			
Cc1ccc(C(=O)C2=C(O)C(=O)N(c3ccc(C)nn3)C2c2ccc(OC(F)(F)F)cc2)cc1 (stereo not shown) [Example 22, 3-hydroxy-4-(4-methyl-benzoyl)-1-(6-methyl-pyridazin-3-yl)-5-(4-trifluoromethoxy-phenyl)-1,5-dihydro-pyrrol-2-one]	6.22	6.30	269 °C			
Cc1ccc(N2C(=O)C(O)=C(C(=O)c3ccc(OC(F)(F)F)cc3)C2c2ccc(C(C)C)cc2)nn1 (stereo not shown) [Example 25, 3-hydroxy-5-(4-isopropyl-phenyl)-1-(6-methyl-pyridazin-3-yl)-4-(4-trifluoromethoxy-benzoyl)-1,5-dihydro-pyrrol-2-one]	6.30	6.70	269 °C			
Cc1ccc(N2C(=O)C(O)=C(C(=O)c3ccc(OC(F)(F)F)cc3)C2c2ccc(OC(F)(F)F)cc2)nn1 (stereo not shown) [Example 96, 3-hydroxy-1-(6-methyl-pyridazin-3-yl)-4-(4-trifluoromethoxy-benzoyl)-5-(4-trifluoromethoxy-phenyl)-1,5-dihydro-pyrrol-2-one]		> 6.00		> 6.00		
Cc1ccc(N2C(=O)C(O)=C(C(=O)c3ccc(C(C)C)cc3)C2c2ccc(C(F)(F)F)nc2)nn1 (stereo not shown) [Example 98, 3-hydroxy-4-(4-isopropyl-benzoyl)-1-(6-methyl-pyridazin-3-yl)-5-(6-trifluoromethyl-pyridin-3-yl)-1,5-dihydro-pyrrol-2-one]		> 5.00		> 5.00		
Cc1ccc(N2C(=O)C(O)=C(C(=O)c3ccc(C(C)C)cc3)C2c2ccc(C(F)(F)F)cn2)nn1 (stereo not shown) [Example 106, 3-hydroxy-4-(4-isopropyl-benzoyl)-1-(6-methyl-pyridazin-3-yl)-5-(5-trifluoromethyl-pyridin-2-yl)-1,5-dihydro-pyrrol-2-one]		> 5.00		> 5.00		
CCOc1ccc(C2C(C(=O)c3ccc(C(C)C)cc3)=C(O)C(=O)N2c2ccc(C)nn2)cn1 (stereo not shown) [Example 110, 5-(6-ethoxy-pyridin-3-yl)-3-hydroxy-4-(4-isopropyl-benzoyl)-1-(6-methyl-pyridazin-3-yl)-1,5-dihydro-pyrrol-2-one]		> 6.00		> 6.00		
Cc1ccc(N2C(=O)C(O)=C(C(=O)c3ccc(C(C)C)cc3)C2c2ccc(C(C)C)cn2)nn1 (stereo not shown) [Example 111, 3-Hydroxy-4-(4-isopropyl-benzoyl)-5-(5-isopropyl-pyridin-2-yl)-1-(6-methyl-pyridazin-3-yl)-1,5-dihydro-pyrrol-2-one]		> 5.00		> 5.00		
Cc1ccc(N2C(=O)C(O)=C(C(=O)c3ccc(OC(C)C)cc3)C2c2ccc(OC(F)(F)F)cc2)nn1 (stereo not shown) [Example 115, 3-hydroxy-4-(4-isopropoxy-benzoyl)-1-(6-methyl-pyridazin-3-yl)-5-(4-trifluoromethoxy-phenyl)-1,5-dihydro-pyrrol-2-one]		> 5.00		> 5.00		
CC(C)c1ccc(C(=O)C2=C(O)C(=O)N(c3ccc(Cl)nn3)C2c2ccc(OC(F)(F)F)cc2)cc1 (stereo not shown) [Example 118, 1-(6-chloro-pyridazin-3-yl)-3-hydroxy-4-(4-isopropyl-benzoyl)-5-(4-trifluoromethoxy-phenyl)-1,5-dihydro-pyrrol-2-one]		> 6.00		> 6.00		
C#Cc1ccc(C2C(C(=O)c3ccc(C(C)C)cc3)=C(O)C(=O)N2c2ccc(C)nn2)cc1 (stereo not shown) [Example 137, 5-(4-ethynyl-phenyl)-3-hydroxy-4-(4-isopropyl-benzoyl)-1-(6-methyl-pyridazin-3-yl)-1,5-dihydro-pyrrol-2-one]		> 5.00		> 5.00		
Cc1ccc(N2C(=O)C(NS(C)(=O)=O)=C(C(=O)c3ccc(C(C)C)cc3)C2c2ccc(OC(F)(F)F)cc2)nn1 (stereo not shown) [Example 149, N-[4-(4-isopropyl-benzoyl)-1-(6-methyl-pyridazin-3-yl)-2-oxo-5-(4-trifluoromethoxy-phenyl)-2,5-dihydro-1H-pyrrol-3-yl]-methanesulfonamide]		> 6.00		> 6.00		
CCOc1ccc(C2C(C(=O)c3ccc(C(C)C)cc3)=C(O)C(=O)N2c2ccc(C)nn2)cn1 (stereo not shown) [Example 155, 2-ethoxy-5-[4-hydroxy-3-(4-isopropyl-benzoyl)-1-(6-methyl-pyridazin-3-yl)-5-oxo-2,5-dihydro-1H-pyrrol-2-yl]-pyridinium; chloride]					> 6.00	> 6.00
Cc1ccc(N2C(=O)C(O)=C(C(=O)c3ccc(C(C)C)cc3)C2c2ccc(C(C)(F)F)cc2)nn1 (stereo not shown) [Example 158, 5-[4-(1,1-difluoro-ethyl)phenyl]-3-hydroxy-4-(4-isopropyl-benzoyl)-1-(6-methyl-pyridazin-3-yl)-1,5-dihydro-pyrrol-2-one]		> 6.00		> 7.00		
Cc1ccc(N2C(=O)C(O)=C(C(=O)c3ccc(C(F)(F)F)cc3)C2c2ccc(OC(F)(F)F)cc2)nn1 (stereo not shown) [Example 162, 3-hydroxy-1-(6-methyl-pyridazin-3-yl)-5-(4-trifluoromethoxy-phenyl)-4-(4-trifluoromethyl-benzoyl)-1,5-dihydro-pyrrol-2-one]		> 5.00		> 6.00		
Cc1ccc(N2C(=O)C(O)=C(C(=O)c3ccc(OC(F)(F)F)cc3)C2c2ccc(OC(C)C)nc2)nn1 (stereo not shown) [Example 169, 3-hydroxy-5-(6-isopropoxy-pyridin-3-yl)-1-(6-methyl-pyridazin-3-yl)-4-(4-trifluoromethoxy-benzoyl)-1,5-dihydro-pyrrol-2-one]		> 6.00		> 6.00		
CCOc1ccc([C@@H]2C(C(=O)c3ccc(C(C)C)cc3)=C(O)C(=O)N2c2ccc(C)nn2)cn1 [Example 192, 5(R)-(6-ethoxy-pyridin-3-yl)-3-hydroxy-4-(4-isopropyl-benzoyl)-1-(6-methyl-pyridazin-3-yl)-1,5-dihydro-pyrrol-2-one]		> 6.00		> 6.00		
Cc1ccc(N2C(=O)C(O)=C(C(=O)c3ccc(C(C)C)cc3)[C@H]2c2ccc(C(F)(F)F)nc2)nn1 [Example 195, 3-hydroxy-4-(4-isopropyl-benzoyl)-1-(6-methyl-pyridazin-3-yl)-5(R)-(6-trifluoromethyl-pyridin-3-yl)-1,5-dihydro-pyrrol-2-one]		> 6.00		> 6.00		
Cc1ccc(N2C(=O)C(O)=C(C(=O)c3ccc(C(C)C)cc3)[C@H]2c2ccc(C(C)(F)F)cc2)nn1 [Example 196, 5(R)-[4-(1,1-difluoro-ethyl)-phenyl]-3-hydroxy-4-(4-isopropyl-benzoyl)-1-(6-methyl-pyridazin-3-yl)-1,5-dihydro-pyrrol-2-one]		> 6.00		> 6.00		
Cc1ccc(N2C(=O)C(NS(C)(=O)=O)=C(C(=O)c3ccc(C(C)C)cc3)[C@H]2c2ccc(OC(F)(F)F)cc2)nn1 [Example 198, N-[4-(4-isopropyl-benzoyl)-1-(6-methyl-pyridazin-3-yl)-2-oxo-5(R)-(4-trifluoromethoxy-phenyl)-2,5-dihydro-1H-pyrrol-3-yl]-methanesulfonamide]		> 6.00		> 6.00		
